Test results taken from the NIST ThermoML archive (doi:10.1016/j.jct.2017.04.003).
Numbers after ± are expanded uncertainties.

Normal melting temperature (Crystal 1, DTA): 666.6 ± 10 °C
Triple point temperature (Crystal 2, DSC): 756.8 ± 10 K
SMILES: [Na+].[Na+].[O-][O-] [sodium peroxide]
